The values that follow come from patent US11241396B2 (Gateway Health Alliances, Inc., priority 2015, dated 2022).

The subject of series [1] is platelets. The following applies: 4 mg/kg/day; cited from earlier work.
The subject of series [2] is humans. The following applies: cited from earlier work.
Series [3] concerns animal. The following applies: 500 mg/kg, bw/day for 3 months dosing; cited from earlier work.
Series [4] concerns humans. The following applies: cited from earlier work. The source holds these as a separate data set.
The subject of series [5] is platelets. To be noted: 10-1,000 μM in vitro; cited from earlier work.
In series [6] the test system is cyclooxygenase (COX). To be noted: in vitro studies; cited from earlier work.
In series [7] the test system is platelets. As to the kind of experiment: Platelet function by whole blood/optical lumi-aggregometer after capsule intake. It counts as in vivo, human. Here is the method: Platelet reactivity during clinical screening was assessed by a PFA-100 (Siemens, Deerfield, Ill.), which measures platelet function by simulating arterial hemostasis under blood flow shear stress. During the intervention, platelet function was assessed by a whole blood/optical lumi-aggregometer (Chrono-log Model 700, Havertown, Pa.). Briefly, platelet aggregation was measured via electrical impedence (or electrical resistance), whereas lumi-aggregometry was used to examine aggregation together with adenosine triphosphate (hereafter, “ATP”) release, which is determined with firefly luciferin-luciferase system. […] One of the following agonists was used to stimulate platelets: collagen (1 μL and 5 μL), AA (10 μL) or ADP (10 μL). ATP release was measured only when platelets were activated with ADP. The aggregation was measured over a period of six minutes, following the addition of an agonist.

Series [8] is described as follows: Plasma resveratrol concentrations (HPLC) after capsule intake. Format: in vivo, human. To be noted: 90 mg, median (interquartile range), n=30. As to the method: The study included two separate investigations: a one hour study and a two hour study (FIG. 1). […] The two hour study was designed to fully assess and compare the responses to trans-res and ResArgin™.
Participants were randomized by block design to consumed trans-res or ResArgin™ in random order. Randomization was performed by the study coordinator following a predetermined plan formulated via a web-based random number generator. […] The study included two separate investigations: a one hour study and a two hour study (FIG. 6). During each study visit, which took place after an overnight fast, a baseline measurement of PAT and a blood sample were collected, followed by consumption of the assigned treatment. During the one hour study, PAT measurements and blood samples were collected thirty and sixty minutes after the capsules were consumed. During the two hour study, a PAT measurement and blood sample were taken two hours after the capsules were consumed.
Briefly, plasma was treated with acidified methanol [0.5% (v/v) of acetic acid in methanol; precooled to −20° C.] containing an appropriate recovery standard. The mixture was stored at −80 C for 12 hours to allow for cryo-assisted protein precipitation, and then centrifuged for 15 min at 16,500×g. […]

Series [9] has as its system human umbilical vein endothelial cells. The following applies: 1 μM; cited from earlier work.
Series [10] concerns postmenopausal women. As to the kind of experiment: Microvascular function by peripheral arterial tonometry (Endo-PAT2000), randomized double-blind crossover trial. Format: in vivo, human. To be noted: combined data; univariate ANOVA with Bonferroni post hoc.
Series [11] relates to platelets. The following applies: 10 mg daily for three months; cited from earlier work.
The mark [12] stands for this setting: 10 mg per day for three months, stable coronary artery disease patients.
The mark [13] stands for this setting: 1 μL collagen, one hour post consumption vs baseline.
[14] abbreviates: 10 μL arachidonic acid, one hour after intake vs baseline.

Structures are written as SMILES. “Also recorded” adds a separate entry of the source. Read-outs that look alike come from different tables or passages of the source.

Turning to `Oc1ccc(C=Cc2cc(O)cc(O)c2)cc1` [Resveratrol, 3,5,4′-trihydroxystilbene], in series [1], the ADP-induced platelet aggregation result was “inhibited”. Moreover, in series [2] (8 mg daily for six months, then 16 mg per day for six months), the “Plasminogen activator inhibitor type 1 (PAI-1)” value is on record as “significant decrease”. Further, the Total cholesterol entry in series [2] (250 mg for three months) is reported as “decrease”. Besides, the “Low density lipoprotein (LDL) cholesterol” value in series [2] (daily intake of 8 mg for six months) is given as “Reduction”. The “Toxicity in animal studies” value in series [3] is “no toxicity effect”. The FMD result in series [4] (setting [12]) and in series [4] (75 mg daily for six weeks) was “enhanced FMD response” in each case.
Regarding `Oc1ccc(/C=C/c2cc(O)cc(O)c2)cc1` [trans-res, Trans-resveratrol], the Platelet aggregation entry in series [5] is “significantly reduced aggregation in a dose dependent fashion”; in series [11], “significantly reduced”. Further, in series [6], the “Cyclooxygenase (COX) activity” value is “can inhibit”. In addition, in series [7] (setting [13]), the “Lag time of platelet aggregation” value is recorded as “significant increase”. Moreover, in [7] (setting [13]), the “Slope of platelet aggregation” value is given as “not for the trans-res group”. Besides, the Platelet function changes entry in series [7] (5 μL collagen, one hour post consumption vs baseline) is on record as “no significant changes”. Moreover, in series [7] (10 μL ADP, one hour post consumption vs baseline), the “Slope, lumi-aggregometry” value was “significant decrease”. The “Area under the curve (AUC) of aggregation” value in [7] (setting [14]) is on record as “no changes were noted”. Also, the Maximum aggregation result in series [7] (setting [14]) is “no changes were noted”. Also, the Plasma resveratrol concentration was 2.04 (0.82, 2.54) in series [8] (30 minutes after intake) and 2.65 (1.69, 3.44) in series [8] (60 minutes after intake). Further, the “Expression of eNOS” value in series [9] was “up-regulated”. Moreover, in series [10], the “FRHI one and two hours post-consumption compared to baseline (significance)” value is recorded as “No differences were observed; also recorded: no changes were noted”. For the same molecule, the “RHI one hour after intake compared to baseline (significance)” value in [10] was “not observed”. Moreover, the FMD entry is “significant improvement in FMD” in [4] (setting [12]); “significant increase in FMD” in [4] (75 mg daily for six weeks); “significant increase in FMD” in series [4] (75 mg, one hour post-consumption); “increase in FMD” in [4] (single dose of 30, 90 and 270 mg, one hour after consumption).
